# Results taken from ChEMBL document CHEMBL1201862, “PubChem BioAssay data set” (2004).
#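 1) Cells in 96-well plates. 2) Compound, 48 h, 5 concentrations. 3) Linear interpolation between surrounding doses. 4) Unreached endpoint = highest concentration. Here, GI50 denotes the concentration required for 50% inhibition of growth.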 The source made the active and inactive calls. No stated cut-off is given here; in the data, active = GI50 up to about 1.1 µM and inactive = higher.
# Tests used:
# Assay in all cases: NCI tumour cell line growth inhibition, 48 h
# SNB-19 = test system: SNB-19
# UO-31 = test system: UO-31
# HOP-92 = test system: HOP-92
# COLO 205 = test system: COLO 205
# SK-OV-3 = test system: SK-OV-3
# RPMI-8226 = test system: RPMI-8226
# MDA-MB-231 = test system: MDA-MB-231
# U-251 = test system: U-251
# SN12C = test system: SN12C
# TK-10 = test system: TK-10
# A549 = test system: A549
# OVCAR-8 = test system: OVCAR-8
# PC-3 = test system: PC-3
# HCT-116 = test system: HCT-116
# BT-549 = test system: BT-549
# NCI-H226 = test system: NCI-H226
# MDA-N = test system: MDA-N
# SR = test system: SR
# NCI-H460 = test system: NCI-H460
# UACC-62 = test system: UACC-62
# OVCAR-3 = test system: OVCAR-3
# OVCAR-4 = test system: OVCAR-4
# EKVX = test system: EKVX
# SK-MEL-5 = test system: SK-MEL-5
# LOX IMVI = test system: LOX IMVI
# SF-539 = test system: SF-539
# NCI-H522 = test system: NCI-H522
# NCI-H23 = test system: NCI-H23
# DU-145 = test system: DU-145
# HCC 2998 = test system: HCC 2998
# K562 = test system: K562
# HCT-15 = test system: HCT-15
# SF-295 = test system: SF-295
# SF-268 = test system: SF-268
# UACC-257 = test system: UACC-257
# T47D = test system: T47D
# RXF 393 = test system: RXF 393
# M14 = test system: M14
# ACHN = test system: ACHN
# CCRF-CEM = test system: CCRF-CEM
# HT-29 = test system: HT-29
# NCI/ADR-RES = test system: NCI/ADR-RES
# HOP-62 = test system: HOP-62
# SNB-75 = test system: SNB-75
# SW-620 = test system: SW-620
# MCF7 = test system: MCF7
# SK-MEL-28 = test system: SK-MEL-28
# CAKI-1 = test system: CAKI-1
# 786-0 = test system: 786-0
# Malme-3M = test system: Malme-3M
# MDA-MB-435 = test system: MDA-MB-435
# SK-MEL-2 = test system: SK-MEL-2
# A498 = test system: A498
# IGROV-1 = test system: IGROV-1
# MOLT-4 = test system: MOLT-4
# OVCAR-5 = test system: OVCAR-5
# Hs-578T = test system: Hs-578T
# KM12 = test system: KM12
# HL-60 = test system: HL-60
smiles,measurement,setting,value
CCOC(=O)C1CCCCN1CCc1c[nH]c2ccccc12 (centres undefined),GI50,SNB-19,> 100 µM (inactive)
same,GI50,UO-31,83.4 µM (inactive)
same,GI50,HOP-92,16 µM (inactive)
same,GI50,COLO 205,> 100 µM (inactive)
same,GI50,SK-OV-3,> 100 µM (inactive)
same,GI50,RPMI-8226,84.7 µM (inactive)
same,GI50,MDA-MB-231,> 100 µM (inactive)
same,GI50,U-251,> 100 µM (inactive)
same,GI50,SN12C,> 100 µM (inactive)
same,GI50,TK-10,> 100 µM (inactive)
same,GI50,A549,74.6 µM (inactive)
same,GI50,OVCAR-8,> 100 µM (inactive)
same,GI50,PC-3,> 100 µM (inactive)
same,GI50,HCT-116,60 µM (inactive)
same,GI50,BT-549,75 µM (inactive)
same,GI50,NCI-H226,71.6 µM (inactive)
same,GI50,MDA-N,> 100 µM (inactive)
same,GI50,SR,> 100 µM (inactive)
same,GI50,NCI-H460,94.8 µM (inactive)
same,GI50,UACC-62,> 100 µM (inactive)
same,GI50,OVCAR-3,> 100 µM (inactive)
same,GI50,OVCAR-4,73.5 µM (inactive)
same,GI50,EKVX,> 100 µM (inactive)
same,GI50,SK-MEL-5,80.9 µM (inactive)
same,GI50,LOX IMVI,> 100 µM (inactive)
same,GI50,SF-539,> 100 µM (inactive)
same,GI50,NCI-H522,56.2 µM (inactive)
same,GI50,NCI-H23,83.8 µM (inactive)
same,GI50,DU-145,> 100 µM (inactive)
same,GI50,HCC 2998,> 100 µM (inactive)
same,GI50,K562,72.3 µM (inactive)
same,GI50,HCT-15,93.1 µM
same,GI50,SF-295,66.2 µM (inactive)
same,GI50,SF-268,> 100 µM (inactive)
same,GI50,UACC-257,> 100 µM (inactive)
same,GI50,T47D,32.5 µM (inactive)
same,GI50,RXF 393,80.9 µM (inactive)
same,GI50,M14,> 100 µM (inactive)
same,GI50,ACHN,> 100 µM (inactive)
same,GI50,CCRF-CEM,> 100 µM (inactive)
same,GI50,HT-29,50.9 µM (inactive)
same,GI50,NCI/ADR-RES,73.1 µM (inactive)
same,GI50,HOP-62,> 100 µM (inactive)
same,GI50,SNB-75,> 100 µM (inactive)
same,GI50,SW-620,> 100 µM (inactive)
same,GI50,MCF7,> 100 µM (inactive)
same,GI50,SK-MEL-28,> 100 µM (inactive)
same,GI50,CAKI-1,> 100 µM (inactive)
same,GI50,786-0,> 100 µM (inactive)
same,GI50,Malme-3M,> 100 µM (inactive)
same,GI50,MDA-MB-435,> 100 µM (inactive)
same,GI50,SK-MEL-2,> 100 µM (inactive)
same,GI50,A498,44.1 µM (inactive)
same,GI50,IGROV-1,> 100 µM (inactive)
same,GI50,MOLT-4,25.1 µM (inactive)
same,GI50,OVCAR-5,> 100 µM (inactive)
same,GI50,Hs-578T,> 100 µM (inactive)
same,GI50,KM12,> 100 µM (inactive)
Cc1ccc(Cc2nnc(S)[nH]2)cc1,GI50,SNB-19,> 100 µM (inactive)
same,GI50,UO-31,79.8 µM (inactive)
same,GI50,HOP-92,> 100 µM (inactive)
same,GI50,COLO 205,> 100 µM (inactive)
same,GI50,SK-OV-3,> 100 µM (inactive)
same,GI50,MDA-MB-231,> 100 µM (inactive)
same,GI50,U-251,> 100 µM (inactive)
same,GI50,SN12C,> 100 µM (inactive)
same,GI50,TK-10,> 100 µM (inactive)
same,GI50,A549,84.7 µM (inactive)
same,GI50,OVCAR-8,79.4 µM (inactive)
same,GI50,PC-3,> 100 µM (inactive)
same,GI50,HCT-116,54.8 µM (inactive)
same,GI50,BT-549,> 100 µM (inactive)
same,GI50,NCI-H226,> 100 µM (inactive)
same,GI50,MDA-N,> 100 µM (inactive)
same,GI50,SR,> 100 µM (inactive)
same,GI50,NCI-H460,78.2 µM (inactive)
same,GI50,UACC-62,> 100 µM (inactive)
same,GI50,OVCAR-3,> 100 µM (inactive)
same,GI50,OVCAR-4,32.3 µM (inactive)
same,GI50,HL-60,25.8 µM (inactive)
same,GI50,EKVX,> 100 µM (inactive)
same,GI50,SK-MEL-5,74.6 µM (inactive)
same,GI50,LOX IMVI,74 µM (inactive)
same,GI50,SF-539,> 100 µM (inactive)
same,GI50,NCI-H23,81.3 µM (inactive)
same,GI50,DU-145,70.8 µM (inactive)
same,GI50,HCC 2998,> 100 µM (inactive)
same,GI50,K562,94.8 µM (inactive)
same,GI50,HCT-15,> 100 µM
same,GI50,SF-295,52.2 µM (inactive)
same,GI50,UACC-257,> 100 µM (inactive)
same,GI50,T47D,40.8 µM (inactive)
same,GI50,M14,> 100 µM (inactive)
same,GI50,ACHN,63.7 µM (inactive)
same,GI50,CCRF-CEM,56.6 µM (inactive)
same,GI50,HT-29,> 100 µM (inactive)
same,GI50,NCI/ADR-RES,77.6 µM (inactive)
same,GI50,HOP-62,61.9 µM (inactive)
same,GI50,SNB-75,> 100 µM (inactive)
same,GI50,SW-620,> 100 µM (inactive)
same,GI50,MCF7,> 100 µM (inactive)
same,GI50,SK-MEL-28,> 100 µM (inactive)
same,GI50,CAKI-1,> 100 µM (inactive)
same,GI50,786-0,75.3 µM (inactive)
same,GI50,Malme-3M,> 100 µM (inactive)
same,GI50,MDA-MB-435,> 100 µM (inactive)
same,GI50,SK-MEL-2,> 100 µM (inactive)
same,GI50,A498,> 100 µM (inactive)
same,GI50,IGROV-1,50.8 µM (inactive)
same,GI50,MOLT-4,> 100 µM (inactive)
same,GI50,OVCAR-5,> 100 µM (inactive)
same,GI50,Hs-578T,47.2 µM (inactive)
same,GI50,KM12,79.1 µM (inactive)
O=C(CCc1ccc(O)cc1)NCCc1cccc(OCc2ccccc2)c1,GI50,SNB-19,69 µM (inactive)
same,GI50,UO-31,12.7 µM (inactive)
same,GI50,HOP-92,23.6 µM (inactive)
same,GI50,COLO 205,49.4 µM (inactive)
same,GI50,SK-OV-3,27.7 µM (inactive)
same,GI50,MDA-MB-231,29 µM (inactive)
same,GI50,U-251,22.7 µM (inactive)
same,GI50,SN12C,75.3 µM (inactive)
same,GI50,TK-10,28.6 µM (inactive)
same,GI50,A549,40.1 µM (inactive)
same,GI50,OVCAR-8,26.2 µM (inactive)
same,GI50,PC-3,20.1 µM (inactive)
same,GI50,HCT-116,21.8 µM (inactive)
same,GI50,BT-549,16.7 µM (inactive)
same,GI50,NCI-H226,29 µM (inactive)
same,GI50,MDA-N,25.1 µM (inactive)
same,GI50,SR,15.4 µM (inactive)
same,GI50,NCI-H460,22.8 µM (inactive)
same,GI50,UACC-62,14.1 µM (inactive)
same,GI50,OVCAR-3,17.2 µM (inactive)
same,GI50,OVCAR-4,31.6 µM (inactive)
same,GI50,HL-60,16.6 µM (inactive)
same,GI50,EKVX,31.5 µM (inactive)
same,GI50,SK-MEL-5,17.4 µM (inactive)
same,GI50,LOX IMVI,15.6 µM (inactive)
same,GI50,SF-539,16.5 µM (inactive)
same,GI50,NCI-H522,32.9 µM (inactive)
same,GI50,NCI-H23,24.4 µM (inactive)
same,GI50,DU-145,30.8 µM (inactive)
same,GI50,HCC 2998,24.4 µM (inactive)
same,GI50,K562,17.9 µM (inactive)
same,GI50,HCT-15,29 µM
same,GI50,SF-295,30.3 µM (inactive)
same,GI50,SF-268,26.5 µM (inactive)
same,GI50,UACC-257,17.6 µM (inactive)
same,GI50,T47D,21.7 µM (inactive)
same,GI50,RXF 393,15.8 µM (inactive)
same,GI50,M14,17.8 µM (inactive)
same,GI50,ACHN,33.2 µM (inactive)
same,GI50,CCRF-CEM,2.96 µM (inactive)
same,GI50,HT-29,19.5 µM (inactive)
same,GI50,NCI/ADR-RES,28.1 µM (inactive)
same,GI50,HOP-62,29.6 µM (inactive)
same,GI50,MCF7,27.9 µM (inactive)
same,GI50,SK-MEL-28,22.7 µM (inactive)
same,GI50,CAKI-1,48 µM (inactive)
same,GI50,786-0,40.4 µM (inactive)
same,GI50,Malme-3M,27.7 µM (inactive)
same,GI50,MDA-MB-435,18.1 µM (inactive)
same,GI50,SK-MEL-2,17.3 µM (inactive)
same,GI50,A498,55.8 µM (inactive)
same,GI50,IGROV-1,28.5 µM (inactive)
same,GI50,MOLT-4,14 µM (inactive)
same,GI50,OVCAR-5,43.5 µM (inactive)
same,GI50,Hs-578T,35.3 µM (inactive)
same,GI50,KM12,25.4 µM (inactive)
